Assay results taken from patent US20250017912A1, “METHODS FOR DOWN-REGULATION AND UP-REGULATION OF PATHWAYS” (MedRegen, LLC, priority 2023, published 2025).
Read-outs that look alike come from different tables or passages of the source. One block for each compound: values may come before it.

Columns and labels:
[1] = Tacrolimus whole blood pharmacokinetics (LC-MS-MS) after SC Composition A; type: in vivo, human; details: for Tacrolimus blood trough levels: 0.01 ml/kg dose group; for AUC / Cmax / Tmax / half-life: human, whole blood; for AUC: read-out: Tacrolimus AUCtau (GM); for Cmax: read-out: Tacrolimus Cmax (GM)
Protocol: Tacrolimus. Blood samples were obtained from all subjects in parallel as for plerixafor. Whole blood from each sample was stored in −80° C. condition until shipment. The analysis of K2EDTA whole blood for the quantitation of tacrolimus using a validated method by LC-MS-MS was performed by Worldwide Clinical Trials, Bioanalytical Services (Austin, TX, USA) in compliance with principles of GLP standards as referenced above.
Study data were collected and similar pharmacokinetic parameters as above were calculated using Analyst® (Version 1.4.2 or 1.6.1, Applied Biosystems/MDS Sciex) and evaluated with Watson Laboratory Information Management System™ (LIMS; Version 7.2.0.03, Thermo Fisher Scientific) software.

CD34+HSCs = details: cited from earlier work
[2] = in vivo
clinical = details: human, in vivo
[3] = test system: cell migration stimulated by CXCL12; details: cited from earlier work
[4] = sc, 0.005 mL/kg, Composition A 0.005 mL/kg SC QAD, Day 5
[5] = sc, 0.005 mL/kg, Composition A 0.005 mL/kg SC, Day 1
[6] = sc, 0.01 mL/kg, Composition A 0.01 mL/kg SC QAD, Day 5
[7] = sc, 0.01 mL/kg, Composition A 0.01 mL/kg SC, Day 1
[8] = sc, 0.02 mL/kg, Composition A 0.02 mL/kg SC QAD, Day 5
[9] = sc, 0.02 mL/kg, Composition A 0.02 mL/kg SC, Day 1

Tacrolimus blood trough levels ([1]; day 1): less than 2 ng/ml
Tacrolimus blood trough levels ([1]; day 5): < 3 ng/mL
Tacrolimus Cmax and AUC versus dose ([1]; Composition A 0.005, 0.01, 0.02 mL/kg, Day 1 and QAD for 5 days): increased in a dose-proportional manner
Tacrolimus Ctrough (GM) ([1]; Composition A 0.005 mL/kg SC QAD, Day 5): 0.88 ng/mL
Tacrolimus Ctrough (GM) ([1]; Composition A 0.005 mL/kg SC, Day 1): 0.57 ng/mL
Tacrolimus median Ctrough ([1]; Composition A 0.005 mL/kg, Day 1): 0.58 ng/mL
Tacrolimus Ctrough ([1]; Composition A 0.005 mL/kg, Day 5): 0.90 ng/mL
Tacrolimus Ctrough (GM) ([1]; Composition A 0.01 mL/kg SC QAD, Day 5): 1.89 ng/mL
Tacrolimus Ctrough (GM) ([1]; Composition A 0.01 mL/kg SC, Day 1): 1.45 ng/mL
Tacrolimus median Ctrough ([1]; Composition A 0.01 mL/kg, Day 1): 1.48 ng/mL
Tacrolimus Ctrough ([1]; Composition A 0.01 mL/kg, Day 5): 1.99 ng/mL
Tacrolimus Ctrough (GM) ([1]; Composition A 0.02 mL/kg SC QAD, Day 5): 2.94 ng/mL
Tacrolimus Ctrough (GM) ([1]; Composition A 0.02 mL/kg SC, Day 1): 2.12 ng/mL
Tacrolimus median Ctrough ([1]; Composition A 0.02 mL/kg, Day 1): 2.24 ng/mL
Tacrolimus Ctrough ([1]; Composition A 0.02 mL/kg, Day 5): 3.19 ng/mL
AUC [1, 4]: 70.1 ng·h/mL
Cmax [1, 4]: 2.09 ng/mL
Tmax ([1]; sc, 0.005 mL/kg, Composition A 0.005 mL/kg SC QAD, Day 5, read-out: Tacrolimus Tmax (Median)): 10 h
half-life ([1]; sc, 0.005 mL/kg, Composition A 0.005 mL/kg SC QAD, Day 5, read-out: Tacrolimus t1/2 (GM) (converted)): 24.9 h
AUC [1, 5]: 46.4 ng·h/mL
Cmax [1, 5]: 1.47 ng/mL
Tmax ([1]; sc, 0.005 mL/kg, Composition A 0.005 mL/kg SC, Day 1, read-out: Tacrolimus Tmax (Median)): 7.5 h
half-life ([1]; sc, 0.005 mL/kg, Composition A 0.005 mL/kg SC, Day 1, read-out: Tacrolimus t1/2 (GM) (converted)): 23.8 h
AUC [1, 6]: 171 ng·h/mL
Cmax [1, 6]: 5.37 ng/mL
Tmax ([1]; sc, 0.01 mL/kg, Composition A 0.01 mL/kg SC QAD, Day 5, read-out: Tacrolimus Tmax (Median)): 5.5 h
half-life ([1]; sc, 0.01 mL/kg, Composition A 0.01 mL/kg SC QAD, Day 5, read-out: Tacrolimus t1/2 (GM) (converted)): 29.5 h
AUC [1, 7]: 105 ng·h/mL
Cmax [1, 7]: 3.15 ng/mL
Tmax ([1]; sc, 0.01 mL/kg, Composition A 0.01 mL/kg SC, Day 1, read-out: Tacrolimus Tmax (Median)): 12 h
half-life ([1]; sc, 0.01 mL/kg, Composition A 0.01 mL/kg SC, Day 1, read-out: Tacrolimus t1/2 (GM) (converted)): 37.8 h
AUC [1, 8]: 237 ng·h/mL
Cmax [1, 8]: 7.91 ng/mL
Tmax ([1]; sc, 0.02 mL/kg, Composition A 0.02 mL/kg SC QAD, Day 5, read-out: Tacrolimus Tmax (Median)): 2 h
half-life ([1]; sc, 0.02 mL/kg, Composition A 0.02 mL/kg SC QAD, Day 5, read-out: Tacrolimus t1/2 (GM) (converted)): 30.6 h
AUC [1, 9]: 152 ng·h/mL
Cmax [1, 9]: 4.49 ng/mL
Tmax ([1]; sc, 0.02 mL/kg, Composition A 0.02 mL/kg SC, Day 1, read-out: Tacrolimus Tmax (Median)): 8.01 h
half-life ([1]; sc, 0.02 mL/kg, Composition A 0.02 mL/kg SC, Day 1, read-out: Tacrolimus t1/2 (GM) (converted)): 36.4 h
half-life ([1]; subcutaneous, Composition A 0.005, 0.01, 0.02 mL/kg, Days 1 and 5, read-out: Tacrolimus GM t1/2): 24 to 38 h
Tmax ([1]; subcutaneous, single dose Day 1 and QAD dosing for 5 days, all doses, read-out: Tacrolimus median Tmax): 2 to 12 h
Mean tacrolimus trough levels ([1]; intermediate dose of MRG-001 (0.01 mL/kg)): 1.8 ng/mL
Mean tacrolimus trough levels ([1]; lowest dose of MRG-001 (0.005 ml/kg)): 0.8 ng/mL
Peak levels of tacrolimus ([1]; middle dose cohort (FIG. 1C)): 2 to 3 ng/mL
Compound: C=CC[C@@H]1/C=C(\C)C[C@H](C)C[C@H](OC)[C@H]2O[C@@](O)(C(=O)C(=O)N3CCCC[C@H]3C(=O)O[C@H](/C(C)=C/[C@@H]3CC[C@@H](O)[C@H](OC)C3)[C@H](C)[C@@H](O)CC1=O)[C@H](C)C[C@@H]2OC [Tacrolimus]

Plerixafor median time to Cmax ([2]; human): 1 to 3 h
Plerixafor elimination ([2]; human, 48 h): fully eliminated at 48 hours
Plerixafor Cmax and AUC versus dose [2]: increased in a dose-proportional manner
half-life (clinical; Plerixafor geometric mean t1/2): 3 to 6 h
half-life (clinical; sc, Plerixafor t1/2 (GM)): 3.29 h
Compound: c1cc(CN2CCCNCCNCCCNCC2)ccc1CN1CCCNCCNCCCNCC1 [Plerixafor, 1,1′-[1,4-phenylenebis(methylene)]bis-1,4,8,11-tetraazacyclo-tetradecane]
Peak CD34+ (CD34+HSCs; high dose plerixafor (0.48 mg/kg)): 32.2 c/μL
CD34+HSCs mobilized at peak levels (CD34+HSCs; normal dose of plerixafor (0.24 mg/kg)): 27.8 µL⁻¹
IC50 [3]: 51 ± 17 nM
